The test system of data set [1] is MCF7. As to the kind of experiment: Antiproliferative activity against human MCF7 cells. Type of data set: functional, cell-based.
Data set [2] concerns NCI/ADR-RES. As to the kind of experiment: Antiproliferative activity against human MCF7ADR cells. Type of data set: functional, cell-based.
The subject of data set [3] is Hep 3B2. As to the kind of experiment: Antiproliferative activity against human Hep3B cells measured after 48 hrs by MTT assay. Format: functional, cell-based.
The subject of data set [4] is MCF7. As to the kind of experiment: Cytotoxicity against human MCF7 cells measured after 3 days by MTT assay. Format: functional, cell-based. The note with it: MCF7, 72 h.
Data set [5] relates to A498. As to the kind of experiment: Cytotoxicity against human A498 cells measured after 3 days by MTT assay. Type of data set: functional, cell-based. The note with it: A498, 72 h.
Data set [6] has as its system SK-OV-3. As to the kind of experiment: Cytotoxicity against human SK-OV-3 cells measured after 3 days by MTT assay. Format: functional, cell-based. The note with it: SK-OV-3, 72 h. In general terms: Tetrazolium assays rely on reduction of a dye to a coloured formazan, in cell work by metabolically active cells.
For another data set, the system named is T-24. As to the kind of experiment: Antiproliferative activity against human T24 cells assessed as inhibition of cell growth. Format: functional, cell-based.
In data set [7] the test system is A549. As to the kind of experiment: Antiproliferative activity against human A549 cells assessed as cell growth inhibition. Format: functional, cell-based.
The test system of data set [8] is SK-OV-3. As to the kind of experiment: Antiproliferative activity against human SK-OV-3 cells assessed as inhibition of cell growth. Type of data set: functional, cell-based.
Data set [9] concerns HeLa. As to the kind of experiment: Antiproliferative activity against human HeLa cells assessed as cell growth inhibition. Format: functional, cell-based.
For data set [10], the system named is HepG2. As to the kind of experiment: Antiproliferative activity against human HepG2 cells assessed as inhibition of cell growth. Format: functional, cell-based.
The nature of data set [11]: Antiproliferative activity against human HL7702 cells assessed as inhibition of cell growth. Format: toxicity, cell-based. Particulars: HL7702 (L02) cells.
For data set [12], the system named is A549. As to the kind of experiment: Antiproliferative activity against human A549 cells assessed as inhibition of cell viability. Type of data set: functional, cell-based.
Another data set concerns A549/CDDP. As to the kind of experiment: Antiproliferative activity against human A549/DDP cells assessed as inhibition of cell viability. Format: functional, cell-based.
Data set [13] in a line: Antiproliferative activity against human HL7702 cells assessed as inhibition of cell viability. Format: toxicity, cell-based. Particulars: HL7702 (L02) cells.
Data set [14] has as its system NCI/ADR-RES. As to the kind of experiment: Growth inhibition of human MCF7ADR cells assessed as reduction in cell viability. Format: functional.
For a further data set, the system named is U-251. As to the kind of experiment: Growth inhibition of human U-251 cells assessed as reduction in cell viability. Format: functional.
For a further data set, the system named is SW-620. As to the kind of experiment: Growth inhibition of human SW620 cells assessed as reduction in cell viability. Type of data set: functional.
The test system of a further data set is NCI-H522. As to the kind of experiment: Growth inhibition of human NCI-H522 cells assessed as reduction in cell viability. Format: functional.
In a further data set the test system is M14. As to the kind of experiment: Growth inhibition of human M14 cells assessed as reduction in cell viability. Type of data set: functional.
Data set [15] deals with SK-OV-3. As to the kind of experiment: Growth inhibition of human SK-OV-3 cells assessed as reduction in cell viability. Type of data set: functional.
The test system of the next data set is DU-145. As to the kind of experiment: Growth inhibition of human DU-145 cells assessed as reduction in cell viability. Format: functional.
For data set [16], the system named is A498. As to the kind of experiment: Growth inhibition of human A498 cells assessed as reduction in cell viability. Format: functional.
Data set [17] concerns HeLa. As to the kind of experiment: Antiproliferative activity against human HeLa cells. Type of data set: functional, cell-based.
A further data set deals with B16-F10. As to the kind of experiment: Antiproliferative activity against mouse B16-F10 cells. Format: functional, cell-based.
Data set [18] in a line: Antiproliferative activity against human LX-2 cells. Type of data set: toxicity, cell-based.
Data set [19] has as its system A549. As to the kind of experiment: Antiproliferative activity against human A549 cells incubated by 48 hrs by MTT assay. Type of data set: functional, cell-based. Particulars: A549, 48 h.
The test system of data set [20] is K562. As to the kind of experiment: Antiproliferative activity against human K562 cells incubated by 48 hrs by MTT assay. Format: functional, cell-based. The note with it: K562, 48 h.
The test system of data set [21] is HepG2. As to the kind of experiment: Antiproliferative activity against human HepG2 cells incubated by 48 hrs by MTT assay. Type of data set: functional, cell-based. Particulars: HepG2, 48 h.
Another data set relates to PC-3. As to the kind of experiment: Antiproliferative activity against human PC-3 cells incubated by 48 hrs by MTT assay. Format: functional, cell-based. Particulars: PC-3, 48 h.
In data set [22] the test system is Hep 3B2. As to the kind of experiment: Anticancer activity against human Hep3B cells measured after 48 hrs. Type of data set: functional, cell-based.
For data set [23], the system named is K562. As to the kind of experiment: Antiproliferative activity against human K562 cells incubated for 48 hrs. Type of data set: functional, cell-based. The note with it: K562, 48 h.
Data set [24] concerns HeLa. As to the kind of experiment: Antiproliferative activity against human HeLa cells incubated for 48 hrs. Format: functional, cell-based.
In the next data set the test system is CT26. As to the kind of experiment: Antiproliferative activity against mouse CT26 cells incubated for 48 hrs. Type of data set: functional, cell-based. The note with it: CT26, 48 h.
Data set [25] has as its system MCF7. As to the kind of experiment: Antiproliferative activity against human MCF7 cells assessed as inhibition of cell growth. Type of data set: functional, cell-based.
Data set [26] deals with A549. As to the kind of experiment: Antiproliferative activity against human A549 cells assessed as inhibition of cell growth. Format: functional, cell-based.
In data set [27] the test system is HeLa. As to the kind of experiment: Antiproliferative activity against human HeLa cells assessed as inhibition of cell growth. Format: functional, cell-based.
Data set [28] is described as follows: Cytotoxicity against human HEK293 cells assessed as inhibition of cell growth. Format: toxicity, cell-based.

For `O=c1c2ccccc2nc2n1-c1ccccc1/C2=N\O`, the concentration for half-maximal inhibition (IC50) (in general, the point on the concentration scale where inhibition reaches its midpoint) amounted to 82.1 µM with MCF7 [1] and 75.3 µM in the data set with NCI/ADR-RES [2].

`O=C1c2cc(I)ccc2-n2c1nc1ccccc1c2=O`: the IC50 with Hep 3B2 [3] was 2.4 µM; with MCF7 [4], 1.5 µM; in the data set on A498 [5] it was 1.86 µM; in the data set with SK-OV-3 [6], 0.65 µM; in the data set on T-24, 85.2 µM; with A549 [7], over 150 µM. Also, the IC50 was 79.1 µM with SK-OV-3 [8], over 150 µM in the data set with HeLa [9], 88.6 µM in the data set on HepG2 [10] and 94.1 µM in data set [11].

Consider `c1ccc(CNCc2ccccn2)nc1`, for which the IC50 (in the data set with A549 [12]; in the data set with A549/CDDP; in data set [13]) was over 100 µM each time.

`O=C1c2cc3ccccc3cc2-n2c1nc1ccccc1c2=O`: the GI50 (in general, the concentration at which growth is held to half of that of the control) in the data set on NCI/ADR-RES [14] came out at 15 µM; in the data set on U-251, 15 µM; in the data set with SW-620, 8 µM; in the data set with NCI-H522, 50 µM; with M14 it was 40 µM; with SK-OV-3 [15], 30 µM. Further, the GI50 in the data set on DU-145 turned out to be 50 µM; in the data set on A498 [16], 60 µM.

As for `N/N=C1/c2cc(F)ccc2-n2c1nc1ccccc1c2=O`, the IC50 with MCF7 [4] came out at 1.4 µM; in the data set on A498 [5] it was 1.26 µM; with SK-OV-3 [6], 8.51 µM.

In the case of `O=C1c2cc([N+](=O)[O-])ccc2-n2c1nc1ccccc1c2=O`, the IC50 in the data set with HeLa [17] is 0.34 µM; in the data set with B16-F10, 0.49 µM; in data set [18], 0.83 µM; in the data set on A549 [19] it was 6.88 µM; with K562 [20], 8.05 µM; in the data set with HepG2 [21], 7.89 µM. The IC50 was determined as 11.8 µM with PC-3 and 1.4 µM with Hep 3B2 [22]. Further, the GI50 is 0.7 µM in the data set with NCI/ADR-RES [14]; over 100 µM in the data set on U-251; 4 µM with SW-620; 0.7 µM with NCI-H522; 0.8 µM in the data set on M14; 5 µM in the data set on SK-OV-3 [15]. The figures for the GI50 in the data set on DU-145 and in the data set on A498 [16] were 0.15 µM and 3 µM, respectively.

Take `C=C[C@@H]1[C@@]2(c3ccccc3)[C@H]3CCCN3[C@@]3(c4ccccc4-n4c3nc3ccccc3c4=O)[C@@]12c1ccccc1`: the results for the IC50 with K562 [23], with HeLa [24] and with CT26 were over 50 µM, over 50 µM and 10 µM, respectively.

On to `O=C1C2C=CC=CC2=NC2/C(=N\Nc3nc(-c4ccc(Br)cc4)cs3)c3ccccc3N12` (stereo unspecified), for which the IC50 in the data set on MCF7 [25] worked out at 12.7 µM; in the data set on A549 [26], 16.9 µM; in the data set with HeLa [27] it was 19.3 µM; in data set [28], 73.3 µM.

Take `O=C1C2C=CC=CC2=NC2/C(=N\Nc3nc(-c4ccc(F)cc4)cs3)c3ccccc3N12` (stereo unspecified): the IC50 in the data set on MCF7 [25] was found to be 10.2 µM; with A549 [26], 6.67 µM; with HeLa [27], 9.54 µM; in data set [28], 86.1 µM.

Take `O=c1c2ccccc2nc2n1-c1ccccc1[C@@]2(O)OCCOc1ccccc1`: the GI50 in the data set with NCI/ADR-RES [14], in the data set with U-251, in the data set with SW-620, with NCI-H522, in the data set with M14 and with SK-OV-3 [15] was over 100 µM throughout. For the same molecule, the GI50 in the data set on DU-145 and with A498 [16] was over 100 µM throughout.
